The values that follow come from ChEMBL document CHEMBL4507319 (2021).

Experiment [1] addresses Protein-tyrosine kinase 2-beta (Homo sapiens) (UniProt Q14289). The following applies: Compound concentration 1000.0 nM.
Experiment [2] addresses Tyrosine-protein kinase ABL2 (Homo sapiens) (UniProt P42684). To be noted: Compound concentration 1000.0 nM.
In experiment [3] the target is Phosphatidylinositol 5-phosphate 4-kinase type-2 beta (Homo sapiens) (UniProt P78356). The following applies: Compound concentration 1000.0 nM.
Sequence of Phosphatidylinositol 5-phosphate 4-kinase type-2 beta (Homo sapiens) (P78356 whole entry, the tested form may be a part): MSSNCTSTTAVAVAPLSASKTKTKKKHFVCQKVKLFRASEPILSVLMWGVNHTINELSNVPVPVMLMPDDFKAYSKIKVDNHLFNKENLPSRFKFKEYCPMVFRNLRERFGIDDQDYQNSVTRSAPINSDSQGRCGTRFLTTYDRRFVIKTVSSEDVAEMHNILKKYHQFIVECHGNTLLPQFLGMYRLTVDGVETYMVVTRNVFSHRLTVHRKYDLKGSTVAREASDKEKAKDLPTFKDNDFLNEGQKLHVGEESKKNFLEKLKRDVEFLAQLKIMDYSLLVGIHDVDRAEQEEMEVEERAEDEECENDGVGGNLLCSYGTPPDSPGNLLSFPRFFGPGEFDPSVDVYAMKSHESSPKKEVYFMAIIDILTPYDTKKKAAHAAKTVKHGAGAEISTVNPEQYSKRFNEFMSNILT
Experiment [4] deals with Epithelial discoidin domain-containing receptor 1 (Homo sapiens) (UniProt Q08345). The following applies: Compound concentration 1000.0 nM.
Sequence of Epithelial discoidin domain-containing receptor 1 (Homo sapiens) (Q08345 whole entry, the tested form may be a part): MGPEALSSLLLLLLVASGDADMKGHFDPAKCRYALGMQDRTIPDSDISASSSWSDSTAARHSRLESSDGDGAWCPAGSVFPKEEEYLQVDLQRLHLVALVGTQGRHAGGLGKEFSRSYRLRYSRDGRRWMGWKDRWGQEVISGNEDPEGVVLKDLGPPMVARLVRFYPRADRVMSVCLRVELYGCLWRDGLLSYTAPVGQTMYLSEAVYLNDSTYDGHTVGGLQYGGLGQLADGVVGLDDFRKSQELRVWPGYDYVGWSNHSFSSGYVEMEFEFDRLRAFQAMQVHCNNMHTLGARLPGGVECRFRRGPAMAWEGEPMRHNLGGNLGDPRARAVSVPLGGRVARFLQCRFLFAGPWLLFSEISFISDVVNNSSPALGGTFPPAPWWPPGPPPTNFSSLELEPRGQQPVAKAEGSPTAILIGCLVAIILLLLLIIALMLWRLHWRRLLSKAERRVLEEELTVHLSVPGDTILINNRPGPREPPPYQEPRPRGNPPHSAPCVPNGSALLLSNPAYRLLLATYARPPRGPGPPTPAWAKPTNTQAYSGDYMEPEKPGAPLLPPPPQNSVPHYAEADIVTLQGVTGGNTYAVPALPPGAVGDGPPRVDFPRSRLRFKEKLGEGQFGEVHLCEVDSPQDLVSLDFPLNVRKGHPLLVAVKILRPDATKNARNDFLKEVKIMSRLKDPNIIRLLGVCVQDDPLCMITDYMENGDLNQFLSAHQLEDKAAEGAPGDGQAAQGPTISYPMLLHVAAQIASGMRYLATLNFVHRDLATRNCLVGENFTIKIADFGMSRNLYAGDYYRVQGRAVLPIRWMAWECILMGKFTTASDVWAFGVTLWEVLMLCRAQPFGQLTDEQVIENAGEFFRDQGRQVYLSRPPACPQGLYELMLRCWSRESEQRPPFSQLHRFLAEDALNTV
The target in experiment [5] is Hepatocyte growth factor receptor (Homo sapiens) (UniProt P08581). The following applies: Compound concentration 1000.0 nM.
In experiment [6] the target is T1, cGMP-dependent protein kinase 2 (Homo sapiens) (UniProt Q13237).
T1 sequence (whole entry): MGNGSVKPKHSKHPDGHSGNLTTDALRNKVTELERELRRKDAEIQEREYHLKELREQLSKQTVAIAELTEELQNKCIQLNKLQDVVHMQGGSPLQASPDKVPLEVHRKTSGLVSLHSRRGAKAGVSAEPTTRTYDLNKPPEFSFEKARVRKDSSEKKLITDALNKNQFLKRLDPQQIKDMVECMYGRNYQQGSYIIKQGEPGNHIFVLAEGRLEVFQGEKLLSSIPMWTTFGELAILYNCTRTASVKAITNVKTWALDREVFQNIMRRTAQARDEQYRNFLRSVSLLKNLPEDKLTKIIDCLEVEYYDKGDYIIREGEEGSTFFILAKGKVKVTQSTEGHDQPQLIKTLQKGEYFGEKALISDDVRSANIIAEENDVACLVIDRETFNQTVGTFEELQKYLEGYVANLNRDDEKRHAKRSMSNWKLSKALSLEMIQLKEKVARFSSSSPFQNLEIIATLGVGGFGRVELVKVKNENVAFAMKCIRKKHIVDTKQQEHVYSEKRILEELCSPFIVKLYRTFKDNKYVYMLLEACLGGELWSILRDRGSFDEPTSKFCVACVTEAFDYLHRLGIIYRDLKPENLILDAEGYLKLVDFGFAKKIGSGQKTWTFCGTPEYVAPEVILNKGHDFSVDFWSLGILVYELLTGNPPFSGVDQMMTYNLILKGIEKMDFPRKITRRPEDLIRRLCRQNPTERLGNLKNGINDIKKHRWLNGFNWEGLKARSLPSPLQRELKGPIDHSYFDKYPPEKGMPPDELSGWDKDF
To be noted: Compound concentration 1000.0 nM.

Experiment [7] concerns the target Serine/threonine-protein kinase D3 (Homo sapiens) (UniProt O94806). To be noted: Compound concentration 1000.0 nM.
Experiment [8] has as its target T2, Tyrosine-protein kinase Mer (Homo sapiens) (UniProt Q12866).
T2 sequence (whole entry): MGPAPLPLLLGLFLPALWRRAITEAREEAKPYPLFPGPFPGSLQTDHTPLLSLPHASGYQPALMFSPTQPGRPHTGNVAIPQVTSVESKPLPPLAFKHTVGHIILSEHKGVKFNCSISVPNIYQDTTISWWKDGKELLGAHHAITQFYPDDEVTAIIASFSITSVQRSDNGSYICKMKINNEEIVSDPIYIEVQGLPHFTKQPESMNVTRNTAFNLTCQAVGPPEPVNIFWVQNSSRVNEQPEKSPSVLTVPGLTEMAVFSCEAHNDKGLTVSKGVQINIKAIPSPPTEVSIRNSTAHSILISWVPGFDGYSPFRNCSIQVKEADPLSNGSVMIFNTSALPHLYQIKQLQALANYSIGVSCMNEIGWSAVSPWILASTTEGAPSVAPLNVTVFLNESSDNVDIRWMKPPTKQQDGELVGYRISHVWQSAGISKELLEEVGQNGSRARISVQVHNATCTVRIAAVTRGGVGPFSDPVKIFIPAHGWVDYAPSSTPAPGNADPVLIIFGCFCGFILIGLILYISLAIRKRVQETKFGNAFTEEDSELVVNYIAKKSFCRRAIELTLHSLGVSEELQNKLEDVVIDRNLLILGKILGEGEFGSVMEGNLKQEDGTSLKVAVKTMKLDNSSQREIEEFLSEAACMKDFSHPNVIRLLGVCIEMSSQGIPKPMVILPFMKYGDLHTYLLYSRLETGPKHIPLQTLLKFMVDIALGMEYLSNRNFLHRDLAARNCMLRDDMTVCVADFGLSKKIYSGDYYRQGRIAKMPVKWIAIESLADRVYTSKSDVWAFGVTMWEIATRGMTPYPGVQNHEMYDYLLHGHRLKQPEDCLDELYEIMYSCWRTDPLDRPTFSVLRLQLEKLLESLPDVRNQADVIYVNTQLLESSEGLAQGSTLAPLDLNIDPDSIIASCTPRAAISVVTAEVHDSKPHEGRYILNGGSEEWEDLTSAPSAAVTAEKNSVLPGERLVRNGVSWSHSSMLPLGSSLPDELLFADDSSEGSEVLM
The following applies: Compound concentration 1000.0 nM.

Experiment [9] deals with Epidermal growth factor receptor (Homo sapiens), P00533 [G719S]. To be noted: Compound concentration 1000.0 nM.
The subject of experiment [10] is Receptor-type tyrosine-protein kinase FLT3 (Homo sapiens), P36888 [UNDEFINED MUTATION]. To be noted: Compound concentration 1000.0 nM.
The next experiment is filed under the species Rattus norvegicus. To be noted: Compound concentration 10.0 uM.
The target in experiment [11] is T3, Dual specificity tyrosine-phosphorylation-regulated kinase 2 (Homo sapiens) (UniProt Q92630).
T3 sequence (whole entry): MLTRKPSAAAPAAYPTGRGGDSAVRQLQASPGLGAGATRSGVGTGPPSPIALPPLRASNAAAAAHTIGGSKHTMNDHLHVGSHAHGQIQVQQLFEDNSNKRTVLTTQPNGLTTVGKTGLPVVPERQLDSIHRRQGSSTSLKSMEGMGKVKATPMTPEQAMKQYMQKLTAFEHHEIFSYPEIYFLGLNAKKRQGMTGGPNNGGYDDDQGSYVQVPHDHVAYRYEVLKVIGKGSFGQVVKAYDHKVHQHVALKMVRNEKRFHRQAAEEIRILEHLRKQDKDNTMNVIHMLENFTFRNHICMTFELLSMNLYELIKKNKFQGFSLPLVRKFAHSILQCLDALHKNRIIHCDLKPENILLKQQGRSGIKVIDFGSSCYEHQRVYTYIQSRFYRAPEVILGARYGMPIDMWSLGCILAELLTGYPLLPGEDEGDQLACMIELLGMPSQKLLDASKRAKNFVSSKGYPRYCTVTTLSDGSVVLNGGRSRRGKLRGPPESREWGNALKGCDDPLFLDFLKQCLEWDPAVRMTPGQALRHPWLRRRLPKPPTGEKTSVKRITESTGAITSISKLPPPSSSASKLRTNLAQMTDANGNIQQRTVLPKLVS
To be noted: Compound concentration 1000.0 nM.

In experiment [12] the target is Alpha-2B adrenergic receptor (Homo sapiens) (UniProt P18089). To be noted: Compound concentration 10.0 uM.
Sequence of Alpha-2B adrenergic receptor (Homo sapiens) (P18089 whole entry): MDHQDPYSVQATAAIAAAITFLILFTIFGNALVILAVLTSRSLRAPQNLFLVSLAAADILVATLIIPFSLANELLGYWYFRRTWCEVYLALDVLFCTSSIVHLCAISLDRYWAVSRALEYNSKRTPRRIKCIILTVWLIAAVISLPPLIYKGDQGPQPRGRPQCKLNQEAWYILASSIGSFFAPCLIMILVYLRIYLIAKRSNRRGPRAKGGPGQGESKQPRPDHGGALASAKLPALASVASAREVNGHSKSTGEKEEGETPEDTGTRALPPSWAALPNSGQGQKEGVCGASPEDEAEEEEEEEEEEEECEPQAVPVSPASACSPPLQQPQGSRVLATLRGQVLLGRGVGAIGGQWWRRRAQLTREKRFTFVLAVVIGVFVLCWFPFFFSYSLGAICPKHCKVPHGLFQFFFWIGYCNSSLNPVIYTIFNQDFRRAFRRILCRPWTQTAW

Sequence of Receptor-type tyrosine-protein kinase FLT3 (Homo sapiens), P36888 [UNDEFINED MUTATION] (P36888 whole entry, looked up, change not shown): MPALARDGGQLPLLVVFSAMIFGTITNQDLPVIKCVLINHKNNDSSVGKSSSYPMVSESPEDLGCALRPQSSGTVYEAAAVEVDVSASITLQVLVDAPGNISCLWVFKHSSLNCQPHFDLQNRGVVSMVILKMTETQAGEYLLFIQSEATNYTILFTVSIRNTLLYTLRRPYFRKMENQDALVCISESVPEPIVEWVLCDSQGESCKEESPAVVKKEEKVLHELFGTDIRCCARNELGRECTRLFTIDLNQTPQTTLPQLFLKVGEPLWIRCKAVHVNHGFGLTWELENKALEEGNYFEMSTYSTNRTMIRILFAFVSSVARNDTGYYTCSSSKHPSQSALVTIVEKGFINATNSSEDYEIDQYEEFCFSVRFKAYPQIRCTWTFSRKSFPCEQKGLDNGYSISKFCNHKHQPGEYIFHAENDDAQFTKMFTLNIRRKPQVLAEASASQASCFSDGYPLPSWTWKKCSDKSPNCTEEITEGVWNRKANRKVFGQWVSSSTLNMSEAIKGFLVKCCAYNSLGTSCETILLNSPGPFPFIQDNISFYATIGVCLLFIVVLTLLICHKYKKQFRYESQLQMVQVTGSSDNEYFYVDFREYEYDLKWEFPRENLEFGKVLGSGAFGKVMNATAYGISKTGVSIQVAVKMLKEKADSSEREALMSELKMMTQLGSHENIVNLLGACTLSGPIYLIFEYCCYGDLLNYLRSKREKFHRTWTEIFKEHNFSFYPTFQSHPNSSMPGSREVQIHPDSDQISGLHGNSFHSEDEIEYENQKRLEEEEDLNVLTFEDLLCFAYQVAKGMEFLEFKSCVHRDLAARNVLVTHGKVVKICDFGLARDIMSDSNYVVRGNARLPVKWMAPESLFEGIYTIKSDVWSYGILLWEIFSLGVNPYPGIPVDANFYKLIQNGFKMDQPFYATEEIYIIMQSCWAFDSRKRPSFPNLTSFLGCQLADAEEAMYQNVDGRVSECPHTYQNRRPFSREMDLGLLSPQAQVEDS
Sequence of Tyrosine-protein kinase ABL2 (Homo sapiens) (P42684 whole entry): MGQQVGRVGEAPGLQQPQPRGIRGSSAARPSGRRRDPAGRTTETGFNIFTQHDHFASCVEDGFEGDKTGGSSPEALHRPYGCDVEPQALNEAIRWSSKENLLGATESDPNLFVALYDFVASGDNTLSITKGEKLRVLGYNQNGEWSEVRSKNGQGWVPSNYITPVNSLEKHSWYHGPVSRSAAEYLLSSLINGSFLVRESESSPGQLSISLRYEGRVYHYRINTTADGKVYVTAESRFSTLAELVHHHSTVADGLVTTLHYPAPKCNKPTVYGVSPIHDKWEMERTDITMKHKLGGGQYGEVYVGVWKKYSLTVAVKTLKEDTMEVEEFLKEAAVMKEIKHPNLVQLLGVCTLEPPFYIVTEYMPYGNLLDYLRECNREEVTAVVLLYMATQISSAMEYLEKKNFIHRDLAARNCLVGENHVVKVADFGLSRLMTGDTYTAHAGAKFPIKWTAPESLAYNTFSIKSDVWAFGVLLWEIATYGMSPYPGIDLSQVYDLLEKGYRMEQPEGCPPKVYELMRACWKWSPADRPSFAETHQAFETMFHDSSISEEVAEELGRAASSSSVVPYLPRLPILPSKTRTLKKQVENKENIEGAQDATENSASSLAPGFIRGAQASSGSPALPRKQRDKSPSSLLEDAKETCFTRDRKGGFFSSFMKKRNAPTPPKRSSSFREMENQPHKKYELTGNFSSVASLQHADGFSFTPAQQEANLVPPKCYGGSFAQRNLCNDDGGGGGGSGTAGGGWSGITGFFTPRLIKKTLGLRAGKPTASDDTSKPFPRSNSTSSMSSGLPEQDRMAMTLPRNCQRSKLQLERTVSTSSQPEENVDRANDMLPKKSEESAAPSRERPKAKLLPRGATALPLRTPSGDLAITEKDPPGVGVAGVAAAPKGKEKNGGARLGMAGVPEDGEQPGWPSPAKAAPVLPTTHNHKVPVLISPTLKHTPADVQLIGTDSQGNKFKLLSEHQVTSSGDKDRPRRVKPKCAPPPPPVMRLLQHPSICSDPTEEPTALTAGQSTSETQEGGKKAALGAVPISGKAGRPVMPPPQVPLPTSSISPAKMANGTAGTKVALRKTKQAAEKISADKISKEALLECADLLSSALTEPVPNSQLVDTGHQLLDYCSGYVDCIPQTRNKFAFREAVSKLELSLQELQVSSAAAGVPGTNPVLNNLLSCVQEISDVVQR
Sequence of Serine/threonine-protein kinase D3 (Homo sapiens) (O94806 whole entry): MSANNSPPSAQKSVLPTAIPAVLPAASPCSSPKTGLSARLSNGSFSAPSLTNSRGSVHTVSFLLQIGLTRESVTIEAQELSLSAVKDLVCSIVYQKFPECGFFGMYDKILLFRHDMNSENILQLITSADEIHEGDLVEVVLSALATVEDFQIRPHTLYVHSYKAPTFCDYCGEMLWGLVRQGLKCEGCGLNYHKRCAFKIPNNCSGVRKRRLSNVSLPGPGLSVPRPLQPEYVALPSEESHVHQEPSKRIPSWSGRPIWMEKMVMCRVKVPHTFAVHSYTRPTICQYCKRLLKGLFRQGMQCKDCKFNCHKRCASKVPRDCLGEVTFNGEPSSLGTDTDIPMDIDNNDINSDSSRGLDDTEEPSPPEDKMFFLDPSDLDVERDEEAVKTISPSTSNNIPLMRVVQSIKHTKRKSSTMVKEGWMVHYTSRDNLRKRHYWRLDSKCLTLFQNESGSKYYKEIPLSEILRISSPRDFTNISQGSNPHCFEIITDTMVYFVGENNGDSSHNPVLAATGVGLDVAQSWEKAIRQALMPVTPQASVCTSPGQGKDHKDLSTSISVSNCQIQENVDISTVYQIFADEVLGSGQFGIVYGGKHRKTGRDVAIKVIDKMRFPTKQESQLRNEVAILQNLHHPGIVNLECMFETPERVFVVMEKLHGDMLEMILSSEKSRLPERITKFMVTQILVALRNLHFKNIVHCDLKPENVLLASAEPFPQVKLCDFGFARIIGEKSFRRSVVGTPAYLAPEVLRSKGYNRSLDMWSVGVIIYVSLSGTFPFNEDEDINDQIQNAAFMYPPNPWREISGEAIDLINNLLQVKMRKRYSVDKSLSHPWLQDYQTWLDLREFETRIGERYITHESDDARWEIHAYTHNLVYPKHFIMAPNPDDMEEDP

Turning to `CC1=C(C#N)C(c2ccc3c(c2)c(NC(=O)c2ccccc2C)nn3C)C(C#N)=C(C)N1` [BAY-974], the residual activity was 83% in experiment [1]; 99% in experiment [2]; 83% in experiment [3]; 74% in [4]; 24% in [5]; 72% in experiment [6]. Also, the residual activity in experiment [7] was 72%; in experiment [8] it was 100%; in experiment [9] it was 87%; in [10], 64%; in experiment [11], 100%. Moreover, the inhibition in the experiment listed under Rattus norvegicus is 96.3%; in experiment [12] it was 20.7%.
As for `CCc1ccccc1C(=O)Nc1n[nH]c2c(C)c(F)c(C3C(C#N)=C(C)N(C)C(C)=C3C#N)cc12` [BAY-3827], the residual activity in experiment [1] was 92%; in experiment [2], 92%; in experiment [3] it was 91%; in [4] it was 48%; in experiment [5], 7.3%; in experiment [6], 100%. Further, the residual activity is 88% in [7]; 80% in [8]; 61% in experiment [9]; 11% in [10]; 82% in experiment [11]. Also, the inhibition was 85.6% in the experiment filed under Rattus norvegicus and 10.6% in [12].
